Laboratory results published in patent publication US9316633B2, “Methods for identifying inhibitors of solute transporters” (The Regents of the University of California, priority 2006, dated 2016).

Target: T1, UT-B (Homo sapiens, UniProt Q13336)
T1 construct: the indicator cells are red blood cells that endogenously express the UT-B urea transporter; endogenous in cells; host or cells: human red blood cells (whole venous blood, single donor)
T1 sequence (Q13336 1-389): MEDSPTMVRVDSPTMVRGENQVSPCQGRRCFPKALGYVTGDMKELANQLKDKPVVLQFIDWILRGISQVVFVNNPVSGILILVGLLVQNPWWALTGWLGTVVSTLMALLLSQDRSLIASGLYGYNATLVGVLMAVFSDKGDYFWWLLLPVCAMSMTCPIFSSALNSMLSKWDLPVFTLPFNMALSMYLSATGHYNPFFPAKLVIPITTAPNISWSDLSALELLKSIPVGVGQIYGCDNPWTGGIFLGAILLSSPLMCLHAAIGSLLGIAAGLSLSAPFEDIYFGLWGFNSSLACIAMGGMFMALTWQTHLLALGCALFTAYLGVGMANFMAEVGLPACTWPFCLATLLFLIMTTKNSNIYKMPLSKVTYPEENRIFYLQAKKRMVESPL
Test: RBC lysis assay, human RBCs loaded with acetamide
Assay type: cell-based
Details: UT-B inhibitory potency

| Compound | EC50 (Table 5, phthalazinamines) [µM] | EC50 (Table 7, aminobenzimidazoles) [µM] |
| --- | --- | --- |
| COc1ccc(Nc2nnc(-c3ccc(C(N)=O)cc3)c3ccccc23)cc1 [ureainh-301, 4-(4-(4-methoxyphenylamino)phthalazin-1-yl)benzamide] | 0.1 |  |
| CN(C)C(=O)c1ccc(Nc2nnc(-c3ccc(C(N)=O)cc3)c3ccccc23)cc1 [ureainh-303, 4-(4-(4-carbamoylphenyl)phthalazin-1-ylamino)-N,N-dimethylbenzamide] | 0.2 |  |
| CNC(=O)c1ccc(Nc2nnc(-c3ccc(C(N)=O)cc3)c3ccccc23)cc1 [ureainh-304, 4-(4-(4-carbamoylphenyl)phthalazin-1-ylamino)-N-methylbenzamide] | 0.6 |  |
| NC(=O)c1ccc(-c2nnc(Nc3ccc(O)cc3)c3ccccc23)cc1 [ureainh-306, 4-(4-(4-hydroxyphenylamino)phthalazin-1-yl)benzamide] | 2 |  |
| NC(=O)c1ccc(-c2nnc(Nc3ccc(S(N)(=O)=O)cc3)c3ccccc23)cc1 [ureainh-307, 4-(4-(4-sulfamoylphenylamino)phthalazin-1-yl)benzamide] | 3 |  |
| CCN(CC)C(=O)c1ccc(-c2nnc(Nc3ccc(C(=O)NC)cc3)c3ccccc23)cc1 [ureainh-308, N,N-diethyl-4-(4-(4-(methylcarbamoyl)phenylamino)phthalazin-1-yl)benzamide] | 2 |  |
| CCN(CC)C(=O)c1ccc(-c2nnc(Nc3ccc(O)cc3)c3ccccc23)cc1 [ureainh-309, N,N-diethyl-4-(4-(4-hydroxyphenylamino)phthalazin-1-yl)benzamide] | 5 |  |
| CCN(CC)C(=O)c1ccc(-c2nnc(Nc3ccc(C(=O)N(C)C)cc3)c3ccccc23)cc1 [ureainh-310, 4-(4-(4-(diethylcarbamoyl)phenyl)phthalazin-1-ylamino)-N,N-dimethylbenzamide] | 3 |  |
| CNC(=O)COc1ccc(Nc2nnc(-c3ccc(C(=O)NCCO)cc3)c3ccccc23)cc1 [ureainh-311, N-(2-hydroxyethyl)-4-(4-(4-(2-(methylamino)-2-oxoethoxy)phenylamino)phthalazin-1-yl)benzamide] | 0.8 |  |
| COc1ccc(-c2nnc(Nc3ccc(OCC(N)=O)cc3)c3ccccc23)cc1 [ureainh-312, 2-(4-(4-(4-methoxyphenyl)phthalazin-1-ylamino)phenoxy)acetamide] | 1 |  |
| COc1ccc(-c2nnc(Nc3ccc(-c4nc5ccccc5[nH]4)cc3)c3ccccc23)cc1 [ureainh-313, N-(4-(1H-benzo[d]imidazol-2-yl)phenyl)-4-(4-methoxyphenyl) phthalazin-1-amine] | 10 |  |
| Cc1ccc(-c2nnc(Nc3ccc(OCC(N)=O)cc3)c3ccccc23)cc1 [ureainh-314, 2-(4-(4-p-tolylphthalazin-1-ylamino)phenoxy) acetamide] | 2 |  |
| CNC(=O)COc1ccc(Nc2nnc(-c3ccc(C)cc3)c3ccccc23)cc1 [ureainh-315, N-methyl-2-(4-(4-p-tolylphthalazin-1-ylamino)phenoxy)acetamide] | 2 |  |
| COc1ccc(Nc2nnc(-c3ccc(O)cc3)c3ccccc23)cc1 [ureainh-316, 4-(4-(4-methoxyphenylamino)phthalazin-1-yl)phenol] | 2 |  |
| CC(=O)Nc1ccc(Nc2nnc(-c3ccc(O)cc3)c3ccccc23)cc1 [ureainh-317, N-(4-(4-(4-hydroxyphenyl)phthalazin-1-ylamino)phenyl)acetamide] | 3 |  |
| NC(=O)COc1ccc(Nc2nnc(-c3ccccc3)c3ccccc23)cc1 [ureainh-318, 2-(4-(4-phenylphthalazin-1-ylamino)phenoxy) acetamide] | 2 |  |
| CNC(=O)COc1ccc(Nc2nnc(-c3ccccc3)c3ccccc23)cc1 [ureainh-319, N-methyl-2-(4-(4-phenylphthalazin-1-ylamino)phenoxy)acetamide] | 3 |  |
| COc1ccc(Nc2nnc(-c3ccccc3)c3ccccc23)cc1 [ureainh-320, N-(4-methoxyphenyl)-4-phenylphthalazin-1-amine] | 4 |  |
| Cc1ccc(-c2nnc(Nc3ccc(C(N)=O)cc3)c3ccccc23)cc1S(=O)(=O)N(C)C [ureainh-321, 4-(4-(3-(N,N-dimethylsulfamoyl)-4-methylphenyl)phthalazin-1-ylamino) benzamide] | 1 |  |
| Cc1ccc(-c2nnc(Nc3ccc(OCC(N)=O)cc3)c3ccccc23)cc1S(=O)(=O)N(C)C [ureainh-322, 2-(4-(4-(3-(N,N-dimethylsulfamoyl)-4-methylphenyl)phthalazin-1-ylamino)phenoxy)acetamide] | 2 |  |
| COC(=O)c1ccc(Nc2nnc(-c3ccc(C)c(S(=O)(=O)NCCO)c3)c3ccccc23)cc1 [ureainh-323, methyl 4-(4-(3-(N-(2-hydroxyethyl)sulfamoyl)-4-methylphenyl)phthalazin-1-ylamino) benzoate] | 2 |  |
| Cc1ccc(-c2nnc(Nc3ccc(C(N)=O)cc3)c3ccccc23)cc1S(=O)(=O)NCCO [ureainh-324, 4-(4-(3-(N-(2-hydroxyethyl)sulfamoyl)-4-methylphenyl)phthalazin-1-ylamino) benzamide] | 5 |  |

| Compound | EC50 (Table 5, phthalazinamines) [µM] | EC50 (Table 7, aminobenzimidazoles) [µM] |
| --- | --- | --- |
| CNS(=O)(=O)c1cc(-c2nnc(Nc3ccc(OCC(N)=O)cc3)c3ccccc23)ccc1C [ureainh-325, 2-(4-(4-(4-methyl-3-(N-methylsulfamoyl)phenyl)phthalazin-1-ylamino)phenoxy)acetamide] | 2 |  |
| CNC(=O)COc1ccc(Nc2nnc(-c3ccc(C)c(S(=O)(=O)NC)c3)c3ccccc23)cc1 [ureainh-326, N-methyl-2-(4-(4-(4-methyl-3-(N-methylsulfamoyl)phenyl)phthalazin-1-ylamino)phenoxy) acetamide] | 2 |  |
| Cc1ccc(-c2nnc(Nc3ccc(O)cc3)c3ccccc23)cc1S(=O)(=O)N1CCOCC1 [ureainh-328, 4-(4-(4-methyl-3-(morpholinosulfonyl)phenyl)phthalazin-1-ylamino)phenol] | 3 |  |
| Cc1ccc(-c2nnc(Nc3ccc(C(N)=O)cc3)c3ccccc23)cc1S(N)(=O)=O [ureainh-329, 4-(4-(4-methyl-3-sulfamoylphenyl)phthalazin-1-ylamino) benzamide] | 5 |  |
| CNC(=O)COc1ccc(Nc2nnc(-c3ccc(C)c(S(N)(=O)=O)c3)c3ccccc23)cc1 [ureainh-330, N-methyl-2-(4-(4-(4-methyl-3-sulfamoylphenyl)phthalazin-1-ylamino)phenoxy)acetamide] | 10 |  |
| Cc1ccc(-c2nnc(Nc3ccc(O)cc3)c3ccccc23)cc1S(=O)(=O)NC(C)(C)CO [ureainh-331, N-(1-hydroxy-2-methylpropan-2-yl)-5-(4-(4-hydroxyphenylamino)phthalazin-1-yl)-2-methylbenzenesulfonamide] | 9 |  |
| COc1ccc(-c2nnc(Oc3ccccc3)c3ccccc23)cc1 [ureainh-332, 1-(4-methoxyphenyl)-4-phenoxyphthalazine] | 2 |  |
| Cc1ccc(-c2nnc(Oc3ccccc3)c3ccccc23)cc1 [ureainh-333, 1-phenoxy-4-p-tolylphthalazine] | 3 |  |
| CCCn1c(NCc2cc(Cl)ccc2O)nc2ccccc21 [ureainh-401, 4-chloro-2-((1-propyl-1H-benzo[d]imidazol-2-ylamino)methyl)phenol] |  | 0.3 |
| CCn1c(NCc2cc(Cl)ccc2O)nc2ccccc21 [ureainh-402, 4-chloro-2-((1-ethyl-1H-benzo[d]imidazol-2-ylamino)methyl)phenol] |  | 0.4 |
| CC(C)n1c(NCc2cc(Cl)ccc2O)nc2ccccc21 [ureainh-403, 4-chloro-2-((1-isopropyl-1H-benzo[d]imidazol-2-ylamino)methyl)phenol] |  | 5 |
| CC(C)n1c(NCc2cc(Br)ccc2O)nc2ccccc21 [ureainh-405, 4-bromo-2-((1-isopropyl-1H-benzo[d]imidazol-2-ylamino)methyl)phenol] |  | 0.4 |
| C=CCn1c(NCc2cc(Br)ccc2O)nc2ccccc21 [ureainh-406, 2-((1-allyl-1H-benzo[d]imidazol-2-ylamino)methyl)-4-bromophenol] |  | 1 |
| CCN(CC)CCn1c(NCc2ccccc2O)nc2ccccc21 [ureainh-407, 2-((1-(2-(diethylamino)ethyl)-1H-benzo[d]imidazol-2-ylamino)methyl)phenol] |  | 0.8 |
| Oc1ccccc1CNc1nc2ccccc2n1CCN1CCCCC1 [ureainh-408, 2-((1-(2-(piperidin-1-yl)ethyl)-1H-benzo[d]imidazol-2-ylamino)methyl)phenol] |  | 0.9 |
| Oc1ccccc1CNc1nc2ccccc2n1CCN1CCOCC1 [ureainh-412, 2-((1-(2-morpholinoethyl)-1H-benzo[d]imidazol-2-ylamino)methyl)phenol] |  | 6 |
| CCCn1c(NCc2cc(C)ccc2O)nc2ccccc21 [ureainh-414, 4-methyl-2-((1-propyl-1H-benzo[d]imidazol-2-ylamino)methyl)phenol] |  | 1 |
| Cc1ccc(O)c(CNc2nc3ccccc3n2C(C)C)c1 [ureainh-415, 2-((1-isopropyl-1H-benzo[d]imidazol-2-ylamino)methyl)-4-methylphenol] |  | 1 |
| CCn1c(NCc2cc(C)ccc2O)nc2ccccc21 [ureainh-416, 2-((1-ethyl-1H-benzo[d]imidazol-2-ylamino)methyl)-4-methylphenol] |  | 1 |
| CCCCn1c(NCc2cc(C)ccc2O)nc2ccccc21 [ureainh-417, 2-((1-butyl-1H-benzo[d]imidazol-2-ylamino)methyl)-4-methylphenol] |  | 2 |
| CCCn1c(NCc2cc(OC)ccc2O)nc2ccccc21 [ureainh-418, 4-methoxy-2-((1-propyl-1H-benzo[d]imidazol-2-ylamino)methyl)phenol] |  | 6 |
